From the NIST ThermoML archive (doi:10.1021/je049691v)

Assay: xn = mol fraction of the nth substance listed
Settings: Liquid

CO [methanol] + O
Settings	mass density [kg/m3]
283.15 K, x2 = 0.08	813.74
283.15 K, x2 = 0.1581	827.14
283.15 K, x2 = 0.2401	842.01
283.15 K, x2 = 0.3206	857.15
283.15 K, x2 = 0.3987	872.39
283.15 K, x2 = 0.4799	888.59
283.15 K, x2 = 0.56	905.16
283.15 K, x2 = 0.6407	922.05
283.15 K, x2 = 0.7201	938.63
283.15 K, x2 = 0.8	954.82
283.15 K, x2 = 0.8801	970.45
283.15 K, x2 = 0.9603	988.05
288.15 K, x2 = 0.08	809.22
288.15 K, x2 = 0.1581	822.75
288.15 K, x2 = 0.2401	837.75
288.15 K, x2 = 0.3206	853.02
288.15 K, x2 = 0.3987	868.39
288.15 K, x2 = 0.4799	884.77
288.15 K, x2 = 0.56	901.56
288.15 K, x2 = 0.6407	918.74
288.15 K, x2 = 0.7201	935.71
288.15 K, x2 = 0.8	952.47
288.15 K, x2 = 0.8801	968.91
288.15 K, x2 = 0.9603	987.31
293.15 K, x2 = 0.08	804.67
293.15 K, x2 = 0.1581	818.33
293.15 K, x2 = 0.2401	833.45
293.15 K, x2 = 0.3206	848.84
293.15 K, x2 = 0.3987	864.35
293.15 K, x2 = 0.4799	880.88
293.15 K, x2 = 0.56	897.88
293.15 K, x2 = 0.6407	915.33
293.15 K, x2 = 0.7201	932.67
293.15 K, x2 = 0.8	949.98
293.15 K, x2 = 0.8801	967.17
293.15 K, x2 = 0.9603	986.29
298.15 K, x2 = 0.08	800.1
298.15 K, x2 = 0.1581	813.88
298.15 K, x2 = 0.2401	829.11
298.15 K, x2 = 0.3206	844.62
298.15 K, x2 = 0.3987	860.25
298.15 K, x2 = 0.4799	876.94
298.15 K, x2 = 0.56	894.14
298.15 K, x2 = 0.6407	911.85
298.15 K, x2 = 0.7201	929.54
298.15 K, x2 = 0.8	947.37
298.15 K, x2 = 0.8801	965.23
298.15 K, x2 = 0.9603	985.01
303.15 K, x2 = 0.08	795.52
303.15 K, x2 = 0.1581	809.4
303.15 K, x2 = 0.2401	824.74
303.15 K, x2 = 0.3206	840.35
303.15 K, x2 = 0.3987	856.1
303.15 K, x2 = 0.4799	872.93
303.15 K, x2 = 0.56	890.32
303.15 K, x2 = 0.6407	908.28
303.15 K, x2 = 0.7201	926.31
303.15 K, x2 = 0.8	944.61
303.15 K, x2 = 0.8801	963.12
303.15 K, x2 = 0.9603	983.49
308.15 K, x2 = 0.08	790.9
308.15 K, x2 = 0.1581	804.88
308.15 K, x2 = 0.2401	820.31
308.15 K, x2 = 0.3206	836.03
308.15 K, x2 = 0.3987	851.89
308.15 K, x2 = 0.4799	868.86
308.15 K, x2 = 0.56	886.42
308.15 K, x2 = 0.6407	904.62
308.15 K, x2 = 0.7201	922.97
308.15 K, x2 = 0.8	941.73
308.15 K, x2 = 0.8801	960.83
308.15 K, x2 = 0.9603	981.76
313.15 K, x2 = 0.08	786.24
313.15 K, x2 = 0.1581	800.3
313.15 K, x2 = 0.2401	815.84
313.15 K, x2 = 0.3206	831.64
313.15 K, x2 = 0.3987	847.61
313.15 K, x2 = 0.4799	864.71
313.15 K, x2 = 0.56	882.44
313.15 K, x2 = 0.6407	900.87
313.15 K, x2 = 0.7201	919.53
313.15 K, x2 = 0.8	938.72
313.15 K, x2 = 0.8801	958.38
313.15 K, x2 = 0.9603	979.82
318.15 K, x2 = 0.08	781.54
318.15 K, x2 = 0.1581	795.69
318.15 K, x2 = 0.2401	811.3
318.15 K, x2 = 0.3206	827.2
318.15 K, x2 = 0.3987	843.26
318.15 K, x2 = 0.4799	860.49
318.15 K, x2 = 0.56	878.38
318.15 K, x2 = 0.6407	897.03
318.15 K, x2 = 0.7201	915.98
318.15 K, x2 = 0.8	935.58
318.15 K, x2 = 0.8801	955.76
318.15 K, x2 = 0.9603	977.69
323.15 K, x2 = 0.08	776.8
323.15 K, x2 = 0.1581	791.04
323.15 K, x2 = 0.2401	806.71
323.15 K, x2 = 0.3206	822.69
323.15 K, x2 = 0.3987	838.85
323.15 K, x2 = 0.4799	856.2
323.15 K, x2 = 0.56	874.24
323.15 K, x2 = 0.6407	893.1
323.15 K, x2 = 0.7201	912.32
323.15 K, x2 = 0.8	932.31
323.15 K, x2 = 0.8801	952.99
323.15 K, x2 = 0.9603	975.39
328.15 K, x2 = 0.08	772.01
328.15 K, x2 = 0.1581	786.32
328.15 K, x2 = 0.2401	802.07
328.15 K, x2 = 0.3206	818.11
328.15 K, x2 = 0.3987	834.36
328.15 K, x2 = 0.4799	851.82
328.15 K, x2 = 0.56	870.01
328.15 K, x2 = 0.6407	889.07
328.15 K, x2 = 0.7201	908.56
328.15 K, x2 = 0.8	928.92
328.15 K, x2 = 0.8801	950.06
328.15 K, x2 = 0.9603	972.92
333.15 K, x2 = 0.08	767.16
333.15 K, x2 = 0.1581	781.54
333.15 K, x2 = 0.2401	797.35
333.15 K, x2 = 0.3206	813.44
333.15 K, x2 = 0.3987	829.79
333.15 K, x2 = 0.4799	847.36
333.15 K, x2 = 0.56	865.69
333.15 K, x2 = 0.6407	884.94
333.15 K, x2 = 0.7201	904.69
333.15 K, x2 = 0.8	925.41
333.15 K, x2 = 0.8801	947
333.15 K, x2 = 0.9603	970.28
338.15 K, x2 = 0.08	762.24
338.15 K, x2 = 0.1581	776.67
338.15 K, x2 = 0.2401	792.56
338.15 K, x2 = 0.3206	808.71
338.15 K, x2 = 0.3987	825.13
338.15 K, x2 = 0.4799	842.81
338.15 K, x2 = 0.56	861.28
338.15 K, x2 = 0.6407	880.72
338.15 K, x2 = 0.7201	900.71
338.15 K, x2 = 0.8	921.77
338.15 K, x2 = 0.8801	943.79
338.15 K, x2 = 0.9603	967.5
343.15 K, x2 = 0.08	757.24
343.15 K, x2 = 0.1581	771.74
343.15 K, x2 = 0.2401	787.68
343.15 K, x2 = 0.3206	803.91
343.15 K, x2 = 0.3987	820.39
343.15 K, x2 = 0.4799	838.17
343.15 K, x2 = 0.56	856.77
343.15 K, x2 = 0.6407	876.4
343.15 K, x2 = 0.7201	896.64
343.15 K, x2 = 0.8	918.02
343.15 K, x2 = 0.8801	940.45
343.15 K, x2 = 0.9603	964.57
348.15 K, x2 = 0.08	752.17
348.15 K, x2 = 0.1581	766.72
348.15 K, x2 = 0.2401	782.71
348.15 K, x2 = 0.3206	799
348.15 K, x2 = 0.3987	815.56
348.15 K, x2 = 0.4799	833.44
348.15 K, x2 = 0.56	852.18
348.15 K, x2 = 0.6407	871.97
348.15 K, x2 = 0.7201	892.45
348.15 K, x2 = 0.8	914.14
348.15 K, x2 = 0.8801	936.97
348.15 K, x2 = 0.9603	961.5
353.15 K, x2 = 0.08	747.01
353.15 K, x2 = 0.1581	761.6
353.15 K, x2 = 0.2401	777.65
353.15 K, x2 = 0.3206	794
353.15 K, x2 = 0.3987	810.62
353.15 K, x2 = 0.4799	828.62
353.15 K, x2 = 0.56	847.48
353.15 K, x2 = 0.6407	867.48
353.15 K, x2 = 0.7201	888.15
353.15 K, x2 = 0.8	910.15
353.15 K, x2 = 0.8801	933.37
353.15 K, x2 = 0.9603	958.3
